≈ marks a conversion by molar mass, not a printed value.
Legend:
[1] = Aqueous solubility of compound at pH 6.5; type: physicochemical; settings: aqueous solution
[2] = Chemical stability of compound in aqueous solution assessed as half life at 100 ug/ml and pH 7.4; type: physicochemical
[3] = Aqueous solubility of compound at pH 2; type: physicochemical; settings: aqueous solution
[4] = Chemical stability of compound in aqueous solution assessed as half life at 100 ug/ml and pH 4; type: physicochemical
[5] = Chemical stability of compound in aqueous solution assessed as half life at 100 ug/ml and pH 1; type: physicochemical
[6] = Oral bioavailability in Beagle dog at 3 mg/kg; type: ADME, organism-based, Canis lupus familiaris; settings: in vivo
[7] = Drug concentration in Beagle dog plasma at 3 mg/kg, po measured at 24 hrs; type: ADME, organism-based, Canis lupus familiaris
[8] = Tmax in Beagle dog at 3 mg/kg, po; type: ADME, organism-based, Canis lupus familiaris; settings: in vivo
[9] = Cmax in Beagle dog at 3 mg/kg, po; type: ADME, organism-based, Canis lupus familiaris; design: dose 3 mg/kg, route oral; settings: in vivo
[10] = AUC (0 to 24 hrs) in Beagle dog at 3 mg/kg, po; type: ADME, organism-based, Canis lupus familiaris; design: time < 24 hr, dose 3 mg/kg, route oral; settings: in vivo

Work on `O=C(NSc1ccccc1)[C@@H](CCC(F)(F)F)N(Cc1ccc(-c2ncon2)cc1F)S(=O)(=O)c1ccc(Cl)cc1` yielded a solubility [1] of under 1 µg/mL, a half-life at 100 ug/ml [2] of 268 h and a solubility [3] of under 1 µg/mL. The half-life at 100 ug/ml [4] was over 500 h and the half-life at 100 ug/ml [5] was over 500 h.

For `N[C@@H](CSNC(=O)[C@@H](CCC(F)(F)F)N(Cc1ccc(-c2ncon2)cc1F)S(=O)(=O)c1ccc(Cl)cc1)C(=O)O`, the solubility [1] was 260 µg/mL (≈ 406 µM), the half-life at 100 ug/ml [2] was 72 h and the solubility [3] was 510 µg/mL (≈ 797 µM). It also gave a half-life at 100 ug/ml [4] of 418 h and a half-life at 100 ug/ml [5] of over 500 h.

`COC(=O)[C@@H](N)CSNC(=O)[C@@H](CCC(F)(F)F)N(Cc1ccc(-c2ncon2)cc1F)S(=O)(=O)c1ccc(Cl)cc1` gave a bioavailability [6] of 107 to 115%, a concentration at 24 h [7] of 90 to 474 nM and a Tmax [8] of 2 h. It also gave a Cmax [9] of 707 to 1170 nM, a solubility [1] of 21 µg/mL (≈ 32.1 µM) and a half-life at 100 ug/ml [2] of 15 h. It also gave an AUC(0-t) at 24 h [10] of 6.03 to 15.8 µM·h, a solubility [3] of 3900 µg/mL (≈ 5960 µM) and a half-life at 100 ug/ml [4] of 185 h. It also gave a half-life at 100 ug/ml [5] of over 500 h.

For `CCOC(=O)[C@@H](N)CSNC(=O)[C@@H](CCC(F)(F)F)N(Cc1ccc(-c2ncon2)cc1F)S(=O)(=O)c1ccc(Cl)cc1`, the solubility [1] was 10 µg/mL (≈ 15 µM), the half-life at 100 ug/ml [2] was 23 h and the solubility [3] was 4300 µg/mL (≈ 6440 µM). For the same molecule, the half-life at 100 ug/ml [4] was 258 h and the half-life at 100 ug/ml [5] was over 500 h.

In the case of `N#CCCSNC(=O)[C@@H](CCC(F)(F)F)N(Cc1ccc(-c2ncon2)cc1F)S(=O)(=O)c1ccc(Cl)cc1`, the solubility [1] is reported as under 1 µg/mL, the half-life at 100 ug/ml [2] is reported as 197 h and the solubility [3] is reported as under 1 µg/mL. It also gave a half-life at 100 ug/ml [4] of over 500 h and a half-life at 100 ug/ml [5] of over 500 h.

In the case of `NCCSNC(=O)[C@@H](CCC(F)(F)F)N(Cc1ccc(-c2ncon2)cc1F)S(=O)(=O)c1ccc(Cl)cc1`, the solubility [1] is reported as 321 µg/mL (≈ 539 µM), the half-life at 100 ug/ml [2] is reported as 52 h and the solubility [3] is reported as over 10000 µg/mL. It also gave a half-life at 100 ug/ml [4] of over 500 h and a half-life at 100 ug/ml [5] of over 500 h.

For `NC(=O)[C@@H](CCC(F)(F)F)N(Cc1ccc(-c2ncon2)cc1F)S(=O)(=O)c1ccc(Cl)cc1` [AVAGACESTAT], the concentration at 24 h [7] was 98 to 442 nM, the Tmax [8] was 1 to 2 h and the Cmax [9] was 881 to 1150 nM. It also gave a solubility [1] of under 1 µg/mL and an AUC(0-t) at 24 h [10] of 5.25 to 14.6 µM·h.

Reference: ChEMBL document CHEMBL4610023, “An amide-based sulfenamide prodrug of gamma secretase inhibitor BMS-708163 delivers parent drug from an oral conventional solid dosage form in male beagle dog” (Bioorg Med Chem Lett, 2020)
